{"source": "ChEMBL document CHEMBL6120946", "about": "“From Hit to Lead: Discovery of First-In-Class Furanone Glycoside D228 Derived from Chimonanthus salicifolius for the Treatment of Inflammatory Bowel Disease” (J Med Chem, 2024)", "key": {"[1]": {"assay": "Toxicity in female BALB/c mouse assessed as effect on Na inorganic salt index at 0.5 g/Kg administered daily and measured after 5 weeks", "details": "in vivo, 500 mg/kg, 840 h"}, "B-cell line": {"tested_on": "B-cell line", "assay": "Immunosuppressive activity in mouse B-lymphocyte assessed as reduction in LPS-induced cell proliferation incubated for 48 hrs", "type": "functional, cell-based"}, "[2]": {"assay": "Toxicity in male C57BL/6 mouse assessed as effect on CREA level at 0.5 g/Kg administered daily and measured after 5 weeks", "details": "in vivo, 500 mg/kg, 840 h"}, "Mus musculus [3]": {"tested_on": "Mus musculus", "assay": "Antiinflammatory activity in DSS-induced male C57BL/6 mouse model of inflammatory bowel disease assessed as amelioration of structural loss of colon at 50 to 100 microM/Kg by H and E staining based analysis", "type": "functional, organism-based", "details": "dose 50-100 µM/Kg"}, "[4]": {"assay": "Toxicity in male C57BL/6 mouse assessed as effect on ALP level at 0.5 g/Kg administered daily and measured after 5 weeks", "details": "in vivo, 500 mg/kg, 840 h"}, "[5]": {"assay": "Toxicity in male C57BL/6 mouse assessed as effect on GLU level at 0.5 g/Kg administered daily and measured after 5 weeks", "details": "in vivo, 500 mg/kg, 840 h"}, "[6]": {"assay": "Toxicity in male C57BL/6 mouse assessed as effect on Cl inorganic salt index at 0.5 g/Kg administered daily and measured after 5 weeks", "details": "in vivo, 500 mg/kg, 840 h"}, "Mus musculus [7]": {"tested_on": "Mus musculus", "assay": "Antiinflammatory activity in DSS-induced male C57BL/6 mouse model assessed as inhibition of TNF-alpha level in colon at 50 to 100 microM/Kg", "type": "functional, organism-based", "details": "dose 50-100 µM/Kg"}, "[8]": {"assay": "Selectivity ratio of CC50 for cytotoxicity against mouse Splenocyte to IC50 for immunosuppressive activity in mouse T-lymphocyte", "type": "toxicity", "details": "splenocytes (CC50) and T-lymphocytes (IC50)"}, "Mus musculus [9]": {"tested_on": "Mus musculus", "assay": "Antiinflammatory activity in DSS-induced male C57BL/6 mouse model of inflammatory bowel disease assessed as inhibition of MPO expression at 50 to 100 microM/Kg, po by immunohistochemical analysis", "type": "functional, organism-based", "details": "dose 50-100 µM/Kg"}, "[10]": {"assay": "Toxicity in female BALB/c mouse assessed as effect on CREA level at 0.5 g/Kg administered daily and measured after 5 weeks", "details": "in vivo, 500 mg/kg, 840 h"}, "[11]": {"assay": "Toxicity in female BALB/c mouse assessed as effect on ALP level at 0.5 g/Kg administered daily and measured after 5 weeks", "details": "in vivo, 500 mg/kg, 840 h"}, "Mus musculus [12]": {"tested_on": "Mus musculus", "assay": "Antiinflammatory activity in DSS-induced male C57BL/6 mouse model assessed as increase in IL-10 level in colon at 50 to 100 microM/Kg", "type": "functional, organism-based", "details": "dose 50-100 µM/Kg"}, "Mus musculus [13]": {"tested_on": "Mus musculus", "assay": "Antiinflammatory activity in DSS-induced male C57BL/6 mouse model assessed as inhibition of IL-22 level in colon at 50 to 100 microM/Kg", "type": "functional, organism-based", "details": "dose 50-100 µM/Kg"}, "Mus musculus [14]": {"tested_on": "Mus musculus", "assay": "Antiinflammatory activity in DSS-induced male C57BL/6 mouse model of inflammatory bowel disease assessed as upregulation of ZO-1 expression in colon at 50 to 100 microM/Kg by immunohistochemical analysis", "type": "functional, organism-based", "details": "dose 50-100 µM/Kg"}, "Mus musculus [15]": {"tested_on": "Mus musculus", "assay": "Antiinflammatory activity in DSS-induced male C57BL/6 mouse model of inflammatory bowel disease assessed as downregulation of TRAF6 expression at 50 to 100 microM/Kg by Western blot analysis", "type": "functional, organism-based", "details": "dose 50-100 µM/Kg"}, "[16]": {"assay": "Toxicity in female BALB/c mouse assessed as effect on GLU level at 0.5 g/Kg administered daily and measured after 5 weeks", "details": "in vivo, 500 mg/kg, 840 h"}, "[17]": {"assay": "Cytotoxicity against mouse Splenocyte by MTT assay", "type": "toxicity, cell-based", "details": "splenocytes"}, "Mus musculus [18]": {"tested_on": "Mus musculus", "assay": "Antiinflammatory activity in DSS-induced male C57BL/6 mouse model of inflammatory bowel disease assessed as amelioration of crypts disruption at 50 to 100 microM/Kg by H and E staining based analysis", "type": "functional, organism-based", "details": "dose 50-100 µM/Kg"}, "[19]": {"assay": "Toxicity in male C57BL/6 mouse assessed as effect on CK level at 0.5 g/Kg administered daily and measured after 5 weeks", "details": "in vivo, 500 mg/kg, 840 h"}, "[20]": {"assay": "Selectivity ratio of CC50 for cytotoxicity against mouse Splenocyte to IC50 for immunosuppressive activity in mouse B-lymphocyte", "type": "toxicity", "details": "splenocytes (CC50) and B-lymphocytes (IC50)"}, "[21]": {"assay": "Immunosuppressive activity in mouse T-lymphocyte assessed as reduction in concanavalin A-induced cell proliferation incubated for 48 hrs", "type": "functional, cell-based"}, "Mus musculus [22]": {"tested_on": "Mus musculus", "assay": "Antiinflammatory activity in DSS-induced male C57BL/6 mouse model of inflammatory bowel disease assessed as downregulation of MyD88 expression at 50 to 100 microM/Kg by Western blot analysis", "type": "functional, organism-based", "details": "dose 50-100 µM/Kg"}, "[23]": {"assay": "Toxicity in female BALB/c mouse assessed as effect on Cl inorganic salt index at 0.5 g/Kg administered daily and measured after 5 weeks", "details": "in vivo, 500 mg/kg, 840 h"}, "Mus musculus [24]": {"tested_on": "Mus musculus", "assay": "Antiinflammatory activity in DSS-induced male C57BL/6 mouse model assessed as inhibition of IL-17A level in colon at 50 to 100 microM/Kg", "type": "functional, organism-based", "details": "dose 50-100 µM/Kg"}, "[25]": {"assay": "Toxicity in male C57BL/6 mouse assessed as effect on Na inorganic salt index at 0.5 g/Kg administered daily and measured after 5 weeks", "details": "in vivo, 500 mg/kg, 840 h"}, "Mus musculus [26]": {"tested_on": "Mus musculus", "assay": "Antiinflammatory activity in DSS-induced male C57BL/6 mouse model assessed as inhibition of IL-6 level in colon at 50 to 100 microM/Kg", "type": "functional, organism-based", "details": "dose 50-100 µM/Kg"}, "Mus musculus [27]": {"tested_on": "Mus musculus", "assay": "Antiinflammatory activity in DSS-induced male C57BL/6 mouse model of inflammatory bowel disease assessed as decrease in p38 phosphorylation level at 50 to 100 microM/Kg by Western blot analysis", "type": "functional, organism-based", "details": "dose 50-100 µM/Kg"}, "Mus musculus [28]": {"tested_on": "Mus musculus", "assay": "Antiinflammatory activity in DSS-induced male C57BL/6 mouse model of inflammatory bowel disease assessed as amelioration of infiltration of inflammatory cells at 50 to 100 microM/Kg by H and E staining based analysis", "type": "functional, organism-based", "details": "dose 50-100 µM/Kg"}, "Mus musculus [29]": {"tested_on": "Mus musculus", "assay": "Antiinflammatory activity in DSS-induced male C57BL/6 mouse model assessed as effect on JNK phosphorylation level at 50 to 100 microM/Kg by Western blot analysis", "type": "functional, organism-based", "details": "dose 50-100 µM/Kg"}, "[30]": {"assay": "Toxicity in female BALB/c mouse assessed as effect on CK level at 0.5 g/Kg administered daily and measured after 5 weeks", "details": "in vivo, 500 mg/kg, 840 h"}}, "note": "Active and inactive are the calls of the source. The calls are words filed in the database; no cut-off is given here.", "data": [{"smiles": "CC(C)=C1OC(C)=C(O)C1=O", "values": [{"measurement": "Activity", "setting": "[1]", "value": "Non-toxic"}, {"measurement": "IC50", "setting": "B-cell line", "value": 23.1, "unit": "µM"}, {"measurement": "Activity", "setting": "[2]", "value": "Non-toxic"}, {"measurement": "Activity", "setting": "Mus musculus [3]", "value": "Active"}, {"measurement": "Activity", "setting": "[4]", "value": "Non-toxic"}, {"measurement": "Activity", "setting": "[5]", "value": "Non-toxic"}, {"measurement": "Activity", "setting": "[6]", "value": "Non-toxic"}, {"measurement": "Activity", "setting": "Mus musculus [7]", "value": "Active"}, {"measurement": "selectivity ratio", "setting": "[8]", "value": 1.82}, {"measurement": "Activity", "setting": "Mus musculus [9]", "value": "Active"}, {"measurement": "Activity", "setting": "[10]", "value": "Non-toxic"}, {"measurement": "Activity", "setting": "[11]", "value": "Non-toxic"}, {"measurement": "Activity", "setting": "Mus musculus [12]", "value": "Active"}, {"measurement": "Activity", "setting": "Mus musculus [13]", "value": "Active"}, {"measurement": "Activity", "setting": "Mus musculus [14]", "value": "Active"}, {"measurement": "Activity", "setting": "Mus musculus [15]", "value": "Active"}, {"measurement": "Activity", "setting": "[16]", "value": "Non-toxic"}, {"measurement": "CC50", "setting": "[17]", "value": 110, "unit": "µM"}, {"measurement": "Activity", "setting": "Mus musculus [18]", "value": "Active"}, {"measurement": "Activity", "setting": "[19]", "value": "Non-toxic"}, {"measurement": "selectivity ratio", "setting": "[20]", "value": 4.77}, {"measurement": "IC50", "setting": "[21]", "value": 62.1, "unit": "µM"}, {"measurement": "Activity", "setting": "Mus musculus [22]", "value": "Active"}, {"measurement": "Activity", "setting": "[23]", "value": "Non-toxic"}, {"measurement": "Activity", "setting": "Mus musculus [24]", "value": "Active"}, {"measurement": "Activity", "setting": "[25]", "value": "Non-toxic"}, {"measurement": "Activity", "setting": "Mus musculus [26]", "value": "Active"}, {"measurement": "Activity", "setting": "Mus musculus [27]", "value": "Active"}, {"measurement": "Activity", "setting": "Mus musculus [28]", "value": "Active"}, {"measurement": "Activity", "setting": "Mus musculus [29]", "value": "inactive"}, {"measurement": "Activity", "setting": "[30]", "value": "Non-toxic"}]}]}
